Experimental data taken from patent US20060111305A1, “Metabolites of certain [1,4]diazepino[6,7,1-ij]quinoline derivatives and methods of preparation and use thereof” (Wyeth, priority 2004, published 2006).

What was measured:
[1] = Rat fecal excretion and metabolite profiles after single oral 5 mg/kg [14C]DCDQ; assay type: in vivo, Sprague-Dawley rats; details: male rats
Method: At sacrifice, blood samples were collected by cardiac puncture into tubes containing EDTA as the anticoagulant and placing them on ice. Aliquots of 50 μL were removed for combustion and determination of radioactivity content. Plasma was immediately obtained from the remaining blood by centrifugation at 4° C. Brains were excised after perfusion with 50 mL of chilled sterile saline. Urine samples were collected on dry ice at intervals of 0-8 and 8-24 hour post-dosing. Feces were collected at intervals of 0-8 and 8-24 hr post-dosing at room temperature and were homogenized as described previously. The biological specimens and aliquots of the dosing solution at pre- and post-dose were stored at approximately −70° C. until analyzed.
Brain and fecal samples were weighed and homogenized in water at volume-to-weight ratios of about 1:1 and 5:1, respectively. Blood aliquots (50 μL), brain homogenates (0.1 gram) and fecal homogenates (0.2 gram) were placed on Combusto-cones with Combusto-pads and combusted. A model 307 Tri-Carb Sample Oxidizer, equipped with an Oximate-80 Robotic Automatic Sampler (Perkin Elmer), was used for combustion. The liberated ^14CO2 was trapped with Carbo-Sorb E carbon dioxide absorber, mixed with PermaFluor® E+ liquid scintillation cocktail, and counted in a Tri-Carb Model 3100 TR/LL liquid scintillation counter (Perkin Elmer). The oxidation efficiency of the oxidizer was 98.2%.
Fecal homogenates were analyzed for metabolite profiles. Aliquots of 1 gram of fecal homogenates were mixed with 2 mL methanol, placed on ice for about 10 minutes and centrifuged. The supernatant was transferred to a clean tube. The residue was extracted three times with 2 mL of a water:methanol (3:7) mixture. The supernatants of each sample were combined, evaporated to about 1 mL, and centrifuged. Extraction efficiency was determined by analyzing aliquots of 10 μL of the supernatant for radioactivity. An aliquot (50-200 μL) of the supernatant was analyzed by HPLC with radioactivity flow detection for profiling. Samples were also analyzed by LC/MS to characterize the radioactive peaks.
A Waters model 2690 HPLC system (Waters Corp., Milford, Mass.) with a built-in autosampler was used for analysis. Separations were accomplished on a Phenomenex Luna C18(2) column (150×2.0 mm, 5 μm) (Phenomenex, Torrance, Calif.). The sample chamber of the autosampler was maintained at 4° C., while the column was at ambient temperature of about 20° C. A variable wavelength UV detector set to monitor 250 nm and a Flo-One β Model A525 radioactivity detector described above were used for data acquisition. The HPLC mobile phase consisted of 10 mM ammonium acetate, pH 4.5 (A) and methanol (B), and was delivered at 0.2 mL/min. […]

[2] = system: cryopreserved human hepatocytes; assay: Incubation of [14C]DCDQ with cryopreserved human hepatocytes; assay type: in vitro ADME; details: 4 hours
Method: Vials containing cryopreserved human hepatocytes were thawed in a 37° C. water bath with gentle shaking until the ice was almost melted. The vials were removed from the water bath and gentle shaking continued at room temperature for 30-60 seconds until completely thawed. The hepatocyte suspensions from each vial were immediately transferred to pre-cooled 50 mL beakers on ice. To each beaker, 12 mL of ice-cold hepatocyte suspension media was added dropwise over one minute, with occasional, gentle shaking by hand to prevent the cells from settling. The cell suspensions were transferred to a 15 mL tube and centrifuged at 100 g force for 3 min at 4° C. (Model T21 super centrifuge, Sorvall). The supernatant was discarded and the pellets were re-suspended in 4 mL of ice-cold hepatocyte culture media. The cell suspensions contained approximately 3.1×10^6 viable hepatocytes/mL. The average viability was 76.0% as determined using Trypan Blue exclusion and a hemacytometer.
The cell suspensions were distributed into 12-well plates at 1.0 mL per well. Incubations were performed using pooled hepatocytes from two donors. [^14C]DCDQ in water was added to the hepatocyte suspension at a final concentration of 10 or 50 μM. Incubations were carried out at 37° C. for 4 hours in an incubator supplied with 5% CO2. At the end of the incubation, the reaction was stopped by the addition of 200 μL cold methanol to each well. The content of each well was transferred to a 15 mL centrifuge tube and sonicated for 30 seconds. After vortex mixing with 6 mL methanol and then centrifugation, the supernatant was transferred to a clean tube and evaporated to about 0.5 mL in a TurboVap evaporator. The residue was analyzed by HPLC and LC/MS.
A Waters model 2690 HPLC system (Waters Corp., Milford, Mass.) with a built-in autosampler was used for analysis. […] A variable wavelength UV detector set to monitor 250 nm and Flo-One β Model A525 radioactivity flow detector (Perkin Elmer) with a 250 μL LQTR flow cell were used for data acquisition. […]

c1cc2c3c(c1)[C@H]1CCC[C@H]1CN3CCNC2 [[^14C]DCDQ]
dosed radioactivity in feces ([1]; 0-8 hour fecal samples): less than 0.1%
dosed radioactivity recovered in feces ([1]; first 24 hours post-dosing): 21.1±2.1%

O=C1CC[C@@H]2c3cccc4c3N(CCNC4)C[C@H]12 [Metabolite M7, 17-keto DCDQ]
metabolite detected in human hepatocyte incubations ([2]; 10 or 50 μM DCDQ): detected

O=C(O)[C@H]1O[C@@H](OC(=O)N2CCN3C[C@@H]4CCC[C@@H]4c4cccc(c43)C2)[C@H](O)[C@@H](O)[C@@H]1O [Metabolite M6, carbamoyl glucuronide of DCDQ]
relative abundance of metabolite in human hepatocytes ([2]; 50 μM DCDQ): most prominent metabolite

c1cc2c3c(c1)[C@H]1CCC[C@H]1CN3CCNC2 [DCDQ, (9aR,12aS)-4,5,6,7,9,9a,10,11,12,12a-decahydro-cyclopenta[c][1,4]diazepine[6,7,1-ij]quinoline, reference compound]
relative abundance in fecal extracts ([1]; 8-24 hour fecal extracts): only trace amounts
